As usually defined, the IC50 is the concentration that gives 50% inhibition. High values mean weaker potency, low ones greater potency.

The assay deals with P. falciparum 3D7 growth, pLDH absorbance. Put plainly: blood-stage malaria parasite growth potency – strain 3D7, dose response (AID 2305).
The molecule `COC(=O)c1c(C#N)c(OC)cc(O)c1CSC[C@H](Nc1nc(-c2ccc([N+](=O)[O-])cc2)cs1)C(=O)NCCN1CCCCC1` yielded a concentration for half-maximal inhibition (IC50) of 1060 nM.
The molecule `Cc1cc(NC(=O)Nc2cccc(Cl)c2Cl)c2ccccc2n1` had an IC50 of 740 nM.
For `O=[N+]([O-])c1ccc(C(O)P(=O)(c2ccccc2)c2ccccc2)cc1` (stereo not given), the IC50 was 340 nM.
`CC(C)CNCc1cccc(-c2cccc(CN(C(=O)c3cccs3)C3CCN(Cc4ccccc4)CC3)c2)c1` had an IC50 of 900 nM.
`CC(Cc1ccc(C(=O)N2CCN(C(=O)c3ccc(CC(C)NCCc4cccc(Cl)c4)cc3)CC2)cc1)NCCc1cccc(Cl)c1` (stereo not given) gave an IC50 of 680 nM.
Turning to `Cc1cc(N[C@@H](Cc2ccccc2)C(=O)NCc2cccs2)nc(NCCc2ccccn2)n1`, the IC50 turned out to be 1280 nM.
To `CCc1cn2c3c(cc(C(=O)N[C@@H](Cc4ccccc4)[C@H](O)CNCc4cccc(C)c4)cc13)N(C)S(=O)(=O)CC2` belongs 250 nM; to `Cc1nc(N)nc(N)c1-c1ccc(Cl)cc1`, 770 nM.
Consider `N#CC(CC(=O)c1ccc(Cl)cc1)c1cccc(F)c1` (stereo not given), for which the IC50 stood at 850 nM.
`CCC1CN2CCc3cc(OC)c(OC)cc3C2CC1CC1NCCc2c1[nH]c1ccc(O)cc21` (stereo not given) came in with an IC50 of 100 nM.
To `CCOC(C(=O)OCC1CCCN1C)(c1ccccc1)c1ccccc1` (stereo not given) belongs 860 nM; to `COc1ccc(CNCCc2cccs2)cc1-c1cccc(S(=O)(=O)NCCN2CCCC2)c1`, 880 nM.
`CCCOc1ccc(C(F)(F)F)cc1NC(=O)c1nc2nc(C)cc(C)n2n1` registered an IC50 of 250 nM.
As to `O=C(Nc1cccc(-c2cccc(-c3nc4ccccc4[nH]3)c2)c1)c1cccnc1`, the IC50 turned out to be 650 nM.
For `CCN1CCN(Cc2ccc(NC(=O)c3cc4ccc5cccnc5c4[nH]3)cc2)CC1` the value was 850 nM; for `Fc1ccc(NC(=S)NN=Cc2ccccn2)cc1`, 770 nM.
To `CCN(CCCNc1nc(=S)[nH]c2cc(OC)c(OC)cc12)c1ccccc1` belongs 720 nM; to `CCCCN(CCCC)CCCCNc1c2ccccc2nc2ccccc12`, 150 nM.
In the case of `COc1ccccc1C1CCN(C2CCC(NC(=O)/C=C/c3ccc(C(F)(F)F)cc3F)CC2)CC1` (stereo not given), the IC50 turned out to be 990 nM.
Turning to `COc1cc(NC(=O)N2CCc3ccc(OCCN4CCCCC4)cc32)cc(C(F)(F)F)c1`, the IC50 is 270 nM.
`c1ccc(CCNCc2cccc(-c3ccc(CNc4ccc5ncccc5c4)cc3)c2)cc1`: the IC50 was 810 nM.
Consider `COc1ccc2nccc([C@@H](O)CN3CCC(NC(=O)C(c4cc5ccccc5o4)N4CCN(C(c5ccccc5)c5ccccc5)CC4)CC3)c2c1` (stereo not given in full), for which the half-inhibitory concentration (IC50) stood at 150 nM.
Regarding `CC(C)[C@@H]1c2ccc(O)cc2C[C@H]2C(=O)N(C3CCCCC3)C(=O)N21`, the IC50 was determined as 880 nM.
Regarding `COc1ccc(N2CCN(CCCCNC(=O)c3ccc(NC(=O)c4cc(C(F)(F)F)cc(C(F)(F)F)c4)cc3)CC2)cc1OC`, the IC50 was 220 nM.
`CCCCNCc1ccc(OCc2cccc(COc3ccc(CNCCCC)cc3I)c2)c(I)c1` registered an IC50 of 1120 nM.
For `O=C(Nc1ccc(-c2cccc(-c3nc4ccc(C(F)(F)F)cc4[nH]3)c2)cc1)c1csnn1` the value was 800 nM; for `OCC1CCN(Cc2cccc(-c3ccc(-c4nc5ccc(C(F)(F)F)cc5[nH]4)cc3)c2)CC1`, 660 nM.
Take `Cc1ccc(NC(=O)NC2CCN(c3ccnc4cc(Cl)ccc34)C2)cc1` (stereo not given): the IC50 is 150 nM.
`CCN(CC)CCN(Cc1ccc(-c2ccc(C(F)(F)F)cc2)cc1)C(=O)Cn1c(CCc2cc(F)cc(F)c2F)nc(=O)c2ccccc21` registered an IC50 of 760 nM.
Molecule `Oc1cc2c(cc1CN1CCN(Cc3cccs3)CC1)CCC2` yielded an IC50 of 840 nM.
Turning to `CCN(CC)CCCNc1nccc(N(C)c2ccc(NC(=O)Nc3cc(C(F)(F)F)ccc3F)cc2)n1`, the half-maximal inhibitory concentration (IC50) amounted to 1050 nM.
In the case of `O=C(Nc1ccc(-c2cccc(-c3nc4ccc(F)cc4[nH]3)c2)cc1)Nc1ccc(Cl)c(Cl)c1`, the half-maximal inhibitory concentration (IC50) was determined as 650 nM.
For `COc1ccc(Cl)cc1S(=O)(=O)Nc1cccc(CCN2CCC(N3CCCCC3)CC2)c1` the value was 700 nM; for `O=C(Cc1cccc(O)c1)NCC(Cc1ccc(O)cc1)c1ccccc1` (stereo not given), 640 nM; for `CCOc1ccc2c(NN=Cc3cccc(F)c3)cc(C)nc2c1`, 710 nM.
Consider `OCCn1c(CNCCCNc2nc3ccccc3[nH]2)cc2c(Cl)cc(Cl)cc21`, for which the IC50 came to 810 nM.
On to `CCN(CC)CCNC(=O)c1ccc(NC(=O)c2cc3c(C)nn(-c4ccc(Cl)cc4)c3s2)cc1`, for which the IC50 is 250 nM.
In turn, `O=C(Nc1cccc(C(F)(F)F)c1)Nc1cc(F)c(F)cc1Cl` gave an IC50 of 1960 nM.
In the case of `N#CCCN1CCN(Cc2cccc(-c3ccc(-c4nc5ccc(F)cc5[nH]4)cc3)c2)CC1`, the IC50 is 600 nM.
In turn, `O=C(COc1ccccc1Cc1ccccc1)Nc1cc(Cl)ccc1-n1cncn1` registered a concentration for half-maximal inhibition (IC50) of 640 nM.
For `Nc1ccn([C@@H]2O[C@H](COC(c3ccccc3)(c3ccccc3)c3ccccc3)[C@@H](O)[C@@H]2O)c(=O)n1` the value was 830 nM; for `NS(=O)(=O)CCc1cccc(Nc2nccc(-c3c(-c4cccc(NC(=O)c5c(F)cccc5F)c4)nn4ccccc34)n2)c1`, 60 nM.
In turn, `COCCNCc1cccc(-c2cccc(CNC3CCN(Cc4ccccc4)CC3)c2)c1` yielded an IC50 of 280 nM.
For the molecule `O=C(Nc1ccc(Cl)cc1)Nc1nc2ccc([N+](=O)[O-])cc2[nH]1`, the IC50 turned out to be 800 nM.
In the case of `O=C(Nc1ccc(N2CCCCC2)c(Cl)c1)c1ncn[nH]1`, the IC50 stood at 450 nM.
To `Cc1cc(Cl)c(S(=O)(=O)NC2CCCC2)cc1OCC(=O)NC1CCCCC1` belongs 380 nM; to `COc1cc2nc(N3CCC(CNC(=O)c4ccc(-c5ccc(C#N)cc5)cc4)CC3)nc(N)c2cc1OC`, 800 nM; to `CC(Oc1c(C2CCN(CCCCNC(=O)c3ccc(-c4ccc(C#N)cc4)cc3)CC2)ccc2c1CCCC2)C(N)=O` (stereo not given), 680 nM.
`CCCN(CCC)C(=O)c1cc(-c2cccc(C)c2)nc2ccccc12` had an IC50 of 1060 nM.
As for `CC(=O)Nc1ccc(C(=O)Nc2cccc(-c3ccc(-c4nc5ccc(F)cc5[nH]4)s3)c2)cn1`, the IC50 worked out at 230 nM.
Molecule `CC(=O)Nc1nc(N)c2c(ccc3c2ccn3CC(C)C)n1` displayed an IC50 of 70 nM.
For `CCOc1ccccc1C1CCN(CCCCNC(=O)c2ccc(NC(=O)c3ccc(Cl)cc3)cc2)CC1` the value was 850 nM.
As to `O=c1cc(NCCCNC2CCOc3c(I)cc(Cl)cc32)[nH]c2ccccc12` (stereo not given), the IC50 amounted to 830 nM.
Regarding `OCCNc1nc(Nc2ccccc2)nc2ccccc12`, the IC50 is 130 nM.
Consider `Cc1ccc(F)cc1-c1cc(N2CCCN(C(=O)c3ccc(Br)o3)CC2)ncn1`, for which the IC50 turned out to be 1430 nM.
Consider `O=C(Nc1ccc(Cl)c(Cl)c1)Nc1cc(C(F)(F)F)ccc1Cl`, for which the IC50 worked out at 1440 nM.
`COc1cc2c(cc1OC)CN(CCCCc1ccc(NC(=O)c3cc(Cl)cc(Cl)c3)cc1)CC2` gave an IC50 of 1200 nM.
To `CS(=O)(=O)c1ccc(CNCc2cccc(-c3cccc(-c4nc5ccc(F)cc5[nH]4)c3)c2)cc1` belongs 560 nM; to `CCNC[C@@H](O)[C@H](Cc1ccccc1)NC(=O)c1cc2c3c(c1)c(CC)cn3CCS(=O)(=O)N2C`, 810 nM; to `COc1ccc(-c2cnc3[nH]cc(-c4ccc(CCC(=O)O)cc4)c3c2)cn1`, 770 nM.
`CCCc1cc(Cc2cnc(N)nc2N)cc(CCC)c1OCCCCC(=O)OC` had an IC50 of 40 nM.
The molecule `O=S(=O)(Nc1cccc(CCN2CCCCC2CCN2CCCC2)c1)c1ccc2ccccc2c1` (stereo not given) came in with an IC50 of 1070 nM.
For `CC(C)C[C@H](NC(=O)c1cc2ccccc2s1)C(=O)N[C@H]1CCN(Cc2ccc(OC3CCN(C)C3)c(Cl)c2)C1` (stereo not given in full) the value was 780 nM; for `O=C(NCc1cccc(F)c1)c1ccc(O)c(-c2cc(Cl)cc(Cl)c2)c1`, 560 nM; for `OC(CNCc1ccccc1OC(F)F)c1cccc(C(F)(F)F)c1` (stereo not given), 760 nM.
For `CCOC(=O)c1c(NC(=O)c2ccccc2)sc2c(O)c(CNC3CCCCC3)ccc12`, the IC50 was found to be 750 nM.
`CC[C@H]1CN2CC[C@H]1C[C@H]2[C@H](O)c1cc(-c2ccc(OC(F)(F)F)cc2)nc2ccc(OC)cc12` yielded an IC50 of 50 nM.
As for `CC(C)N(C(=O)CSc1nc2cc(Cl)ccc2c(=O)n1Cc1ccccc1)C(C)C`, the IC50 was found to be 170 nM.
For the molecule `COc1cc(NC(=O)c2nn(CCCN3CCC(N4CCCC4)CC3)cc2-c2ccc(Cl)c(Cl)c2)cc(OC)c1OC`, the IC50 turned out to be 560 nM.
In turn, `CC(C)NCc1ccc(-c2cccc(CN3CCC(c4ccccc4)CC3)c2)c(C(=O)NCC2CCCCC2)c1` had an IC50 of 850 nM.
`Nc1ccc(-c2nc3ccc(-c4ccc5nc(-c6ccc(N)cc6)[nH]c5c4)cc3[nH]2)cc1` returned an IC50 of 130 nM.
Regarding `Cc1cc(C2CCN(CCCCNC(=O)c3ccc(NC(=O)c4ccc(Cl)cc4)cc3)CC2)c(C)cc1OCc1nccn1C`, the IC50 worked out at 830 nM.
Molecule `Cc1[nH]c(C)c(-c2ccc(Oc3cccc(C(F)(F)F)c3)cc2)c(=O)c1Br` displayed a half-inhibitory concentration (IC50) of 10 nM.
`CN1CCC(NCc2cccc(-c3ccc(S(=O)(=O)NCCN4CCCC4)c(F)c3)c2)CC1` had an IC50 of 1010 nM.
With `O=C(Nc1ccccc1)N(Cc1ccccc1-c1cccc(CNC2CCCC2)c1)C1CCN(Cc2ccccc2)CC1`, the IC50 stood at 170 nM.
For `Cc1cc(NCC2CCN(CC3CCCCC3)C2)nc(Nc2ccc(Br)cc2)n1` (stereo not given) the value was 880 nM; for `CCOc1ccc(-c2nc(NC(=O)COc3ccc(OC)cc3)sc2C)cc1`, 540 nM; for `COc1ccc2nccc([C@@H](O)CN3CCC(NCCOc4ccccc4C#N)CC3)c2c1`, 400 nM.
Regarding `N=C(N)c1ccc(Nc2nc(Nc3ccc(-c4ccccc4)cc3)ncc2[N+](=O)[O-])cc1`, the concentration for half-maximal inhibition (IC50) stood at 800 nM.
`CC(C)CCCC(C)(C)NC[C@@H](O)[C@H](Cc1ccccc1)NC(=O)c1cccc(OCC2CC2)c1` registered a concentration for half-maximal inhibition (IC50) of 840 nM.
As to `CCOC(=O)c1cc2c(CCN3C(=O)c4ccccc4C3=O)cn(C)c2cc1-c1ccncc1`, the IC50 is 580 nM.
`C=C[C@]1(C)C[C@@H](OC(=O)c2n[nH]c3ccccc3c2=O)[C@]2(C)[C@H](C)CC[C@]3(CCC(=O)[C@H]32)[C@@H](C)[C@@H]1O` had an IC50 of 670 nM.
Consider `COc1ccc2nccc(N(C)CC3(O)CCN(CCc4ccc5c(c4)OCCO5)CC3)c2n1`, for which the IC50 worked out at 140 nM.
The molecule `Cc1ccc2[nH]c(-c3ccc(/C=C/C(=O)NC4CCN(Cc5ccccc5)CC4)cc3)nc2c1C` showed an IC50 of 630 nM.
The molecule `CC(=O)Nc1ccc(CN2CCC(NC(=O)c3ccc(-c4cccc(F)c4)s3)CC2)cc1` displayed an IC50 of 1430 nM.

For the origin of these results see PubChem BioAssay AID2305 (GlaxoSmithKline (GSK), 2010).
